pIC50: −log10 of the molar value.
Legend:
[1] = target: T1, SARM1 (Homo sapiens, UniProt Q6SZW1); assay: In vitro biochemical assay for inhibiting SARM1 enzyme activity (PC6 fluorescence, NADase); details: full-length SARM1 from transfected HEK293 cells; 50 µM NAD, 50 µM PC6, 50 µM NMN activator; room temperature, 30 minutes; read-out: IC50
T1 construct: inventors produced full-length SARM1 for NAD enzyme activity experiments, and used it for screening; His (C); made in house; host or cells: HEK293 cells, transient transfection; supernatant of digitonin lysate, no further purification described
T1 sequence (Q6SZW1 28-724): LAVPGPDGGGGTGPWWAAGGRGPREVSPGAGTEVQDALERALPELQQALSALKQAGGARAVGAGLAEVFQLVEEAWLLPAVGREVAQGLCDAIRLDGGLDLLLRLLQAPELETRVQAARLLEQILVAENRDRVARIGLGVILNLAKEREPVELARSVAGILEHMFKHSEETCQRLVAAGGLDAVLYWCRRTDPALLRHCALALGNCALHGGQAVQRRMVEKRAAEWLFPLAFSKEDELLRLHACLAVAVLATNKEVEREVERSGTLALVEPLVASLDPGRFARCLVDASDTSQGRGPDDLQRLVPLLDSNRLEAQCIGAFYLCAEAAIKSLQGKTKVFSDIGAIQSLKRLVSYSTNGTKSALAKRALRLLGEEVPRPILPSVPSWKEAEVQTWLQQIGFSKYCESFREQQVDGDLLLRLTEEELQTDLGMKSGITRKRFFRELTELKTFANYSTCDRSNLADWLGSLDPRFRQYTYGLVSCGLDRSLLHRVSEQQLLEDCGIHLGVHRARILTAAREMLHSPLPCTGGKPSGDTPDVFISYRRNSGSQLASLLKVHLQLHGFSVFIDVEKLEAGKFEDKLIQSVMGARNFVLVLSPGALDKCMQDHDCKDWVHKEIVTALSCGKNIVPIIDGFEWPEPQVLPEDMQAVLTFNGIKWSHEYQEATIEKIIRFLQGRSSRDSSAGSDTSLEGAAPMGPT
Method in brief: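 Lysate supernatant from HEK293 cells transfected 48 hours with His-tagged SARM1 was obtained by 100 μM digitonin lysis and preincubated with inhibitor 10 minutes at room temperature.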

[2] = tested on: dorsal root ganglion explants; assay: Axonal Wallerian degeneration assay in mouse DRG explant culture; assay type: cell-based, C57BL/6 male mice; details: 10 µM test compound, 2 hours pretreatment, axons transected, images at 0 hour and 24 hours
Method in brief: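 Explants from 2-month-old male C57BL/6 mouse DRG were cultured 8 days in Neurobasal/B-27 with 10 ng/mL NGF. They were pretreated 2 h with 10 µM compound at 37°C, then axons were transected with a glass electrode. Axonal integrity was scored by script from bright-field images at 0 and 24 h.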

Row | pIC50 [1] | Compound | Degree of Protection Against Axonal Wallerian Degeneration [2]
1 | 6.00 to 7.00 | O=C(Nc1ccc2c(c1)COc1cnccc1-2)OCc1ccc(F)cc1 [Compound 135] | A (substantial protection (A) >50%)
2 | > 7.00 | O=C(CCc1ccccc1F)Nc1ccc2c(c1)COc1cnccc1-2 [Compound 136] | A (substantial protection (A) >50%)
3 | 6.00 to 7.00 | O=C1C(Cc2ccc(F)cc2)CCCN1c1ccc2c(c1)COc1cnccc1-2 (stereo not shown) [Compound 137] | A (substantial protection (A) >50%)
4 | > 7.00 | O=C(CCc1cccs1)Nc1ccc2c(c1)COc1cnccc1-2 [Compound 138] | A (substantial protection (A) >50%)
5 | > 7.00 | [2H]C1(Cc2ccc(F)cc2)CCN(c2ccc3c(c2)COc2cnccc2-3)C1=O (stereo not shown) [Compound 139, 3-(4-fluorobenzyl)-1-(6H-isochromeno[3,4-c]pyridin-8-yl)pyrrolidin-2-one-3d] | A (substantial protection (A) >50%)
6 | 6.00 to 7.00 | O=C(CCc1ccc(F)cc1)Nc1ccc2c(c1)COc1cncc(Cl)c1-2 [Compound 140] | B (partial protection (B): 20% to 50%)
7 | 6.00 to 7.00 | O=C1C(Cc2ccc(F)cc2)CN1c1ccc2c(c1)COc1cnccc1-2 (stereo not shown) [Compound 142, 3-(4-fluorobenzyl)-1-(6H-isochromeno[3,4-c]pyridin-8-yl)azetidin-2-one] | A (substantial protection (A) >50%)
8 | > 7.00 | [2H]C1(Cc2ccc(F)cc2)CCN(c2ccc3c(c2)C([2H])([2H])Oc2cnccc2-3)C1=O (stereo not shown) [Compound 143, 3-(4-fluorobenzyl)-1-(6H-isochromeno[3,4-c]pyridin-8-yl-6,6-d2)pyrrolidin-2-one-3d] | A (substantial protection (A) >50%)
9 | > 7.00 | [2H]C1Oc2cnccc2-c2ccc(N3CCC(Cc4ccc(F)cc4)C3=O)cc21 (stereo not shown) [Compound 145, 3-(4-fluorobenzyl)-1-(6H-isochromeno[3,4-c]pyridin-8-yl-6-d)pyrrolidin-2-one] | A (substantial protection (A) >50%)
10 | > 7.00 | [2H]C1([2H])Oc2cnccc2-c2ccc(N3CCC(Cc4ccc(F)cc4)C3=O)cc21 (stereo not shown) [Compound 146, 3-(4-fluorobenzyl)-1-(6H-isochromeno[3,4-c]pyridin-8-yl-6,6-d2)pyrrolidin-2-one] | A (substantial protection (A) >50%)
11 | > 7.00 | CC1Oc2cnccc2-c2ccc(N3CCC(Cc4ccc(F)cc4)C3=O)cc21 (stereo not shown) [Compound 147, 3-(4-fluorobenzyl)-1-(6-methyl-6H-isochromeno[3,4-c]pyridin-8-yl)pyrrolidin-2-one] | A (substantial protection (A) >50%)
